What follows are compounds tested against H1047R PIK3CA enzyme (Homo sapiens, UniProt P42336, H1047R) (assay: ADP-Glo Biochemical PIK3CA Kinase Assay).
Sequence of H1047R PIK3CA enzyme (P42336 whole entry H1047R): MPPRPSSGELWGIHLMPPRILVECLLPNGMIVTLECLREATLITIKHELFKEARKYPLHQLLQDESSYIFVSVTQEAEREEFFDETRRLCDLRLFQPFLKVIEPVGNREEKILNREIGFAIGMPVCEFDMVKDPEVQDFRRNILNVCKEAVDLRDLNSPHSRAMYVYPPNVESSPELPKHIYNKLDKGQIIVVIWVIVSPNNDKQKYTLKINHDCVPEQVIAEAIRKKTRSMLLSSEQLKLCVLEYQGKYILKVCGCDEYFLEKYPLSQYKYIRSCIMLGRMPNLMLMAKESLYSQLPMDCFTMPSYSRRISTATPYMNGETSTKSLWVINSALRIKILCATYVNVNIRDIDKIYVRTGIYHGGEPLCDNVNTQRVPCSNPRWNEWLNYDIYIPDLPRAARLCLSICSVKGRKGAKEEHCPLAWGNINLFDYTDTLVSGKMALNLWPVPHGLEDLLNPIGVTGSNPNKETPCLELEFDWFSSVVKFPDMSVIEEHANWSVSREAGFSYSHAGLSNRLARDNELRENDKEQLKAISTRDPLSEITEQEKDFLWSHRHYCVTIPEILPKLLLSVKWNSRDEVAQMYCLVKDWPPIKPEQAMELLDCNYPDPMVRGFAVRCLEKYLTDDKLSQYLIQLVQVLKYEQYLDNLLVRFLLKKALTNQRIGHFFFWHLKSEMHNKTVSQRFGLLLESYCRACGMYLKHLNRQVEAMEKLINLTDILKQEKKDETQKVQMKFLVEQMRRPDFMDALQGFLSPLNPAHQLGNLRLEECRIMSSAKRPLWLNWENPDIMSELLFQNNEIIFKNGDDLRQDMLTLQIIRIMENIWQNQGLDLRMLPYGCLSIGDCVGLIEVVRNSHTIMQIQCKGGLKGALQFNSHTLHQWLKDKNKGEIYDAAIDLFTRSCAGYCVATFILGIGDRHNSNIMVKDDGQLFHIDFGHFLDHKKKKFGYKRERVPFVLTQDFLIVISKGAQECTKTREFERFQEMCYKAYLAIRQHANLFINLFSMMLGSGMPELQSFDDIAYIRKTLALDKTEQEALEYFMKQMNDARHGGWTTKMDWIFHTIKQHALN
Sequence of H1047R PIK3CA enzyme (P27986 whole entry partner): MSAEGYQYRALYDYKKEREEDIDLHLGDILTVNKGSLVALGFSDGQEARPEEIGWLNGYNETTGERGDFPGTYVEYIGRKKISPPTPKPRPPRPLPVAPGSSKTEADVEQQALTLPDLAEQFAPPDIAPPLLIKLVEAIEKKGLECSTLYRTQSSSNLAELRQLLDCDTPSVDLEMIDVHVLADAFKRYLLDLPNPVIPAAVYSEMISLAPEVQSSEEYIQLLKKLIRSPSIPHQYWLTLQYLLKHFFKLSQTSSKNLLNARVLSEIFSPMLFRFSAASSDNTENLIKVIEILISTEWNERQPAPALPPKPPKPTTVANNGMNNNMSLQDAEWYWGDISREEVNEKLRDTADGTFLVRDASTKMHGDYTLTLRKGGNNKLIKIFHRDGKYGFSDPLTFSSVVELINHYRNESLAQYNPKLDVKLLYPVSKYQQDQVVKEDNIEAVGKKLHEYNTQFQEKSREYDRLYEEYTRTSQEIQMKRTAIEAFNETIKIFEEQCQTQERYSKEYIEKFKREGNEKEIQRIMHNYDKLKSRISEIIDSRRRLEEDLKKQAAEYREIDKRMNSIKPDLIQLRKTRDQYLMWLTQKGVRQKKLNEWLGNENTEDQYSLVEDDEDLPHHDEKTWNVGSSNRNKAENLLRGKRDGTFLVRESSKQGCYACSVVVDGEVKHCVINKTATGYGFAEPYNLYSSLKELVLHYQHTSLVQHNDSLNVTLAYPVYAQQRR

**Q.** For `CNC(=O)n1cc(-c2cc(NC(=O)c3cc(F)cc(C(F)(F)F)c3)c3c(c2)C(=O)NC3c2cc(F)ccc2Cl)cn1` (stereo not drawn) [Compound I-1505], which IC50 is on record?
**A.** ≤ 100 nM

**Q.** With `CN(C)C(=O)c1cc(-c2ccc3ncnn3c2)cc2c1C(c1cc(F)ccc1Cl)NC2=O` (stereo not drawn) [Compound I-1857] as the compound, how does the IC50 read?
**A.** 10000 to 100000 nM

**Q.** With `O=C(Nc1cc(Br)cc2c1C(c1cc(F)ccc1Cl)NC2=O)c1cc(F)cc(Cl)c1F` (stereo not drawn) [Compound I-836] as the compound, how does the IC50 read?
**A.** 500 to 1000 nM

**Q.** How did the IC50 turn out when `O=C(Nc1cc(C#CC2(O)COC2)cc2c1C(c1cc(F)ccc1Cl)NC2=O)c1cc(F)cc(C(F)(F)F)c1` (stereo not drawn) [Compound I-1154] was run?
**A.** ≤ 100 nM

**Q.** For `O=C1NC(c2cc(F)ccc2Cl)c2c1cc(-c1ccc3ncnn3c1)cc2N1CCn2cc(C(F)(F)F)nc2C1` (stereo not drawn) [Compound I-2039], which IC50 is on record?
**A.** 10000 to 100000 nM

**Q.** For `O=C(CO)Nc1cc(NC(=O)c2cc(F)cc(C(F)(F)F)c2)c2c(c1)C(=O)N[C@H]2c1cc(F)ccc1Cl` [Compound I-511], which IC50 is on record?
**A.** ≤ 100 nM

**Q.** For `O=C1N[C@H](c2cc(F)ccc2Cl)c2c(NC(=O)N3C[C@@](O)(C(F)(F)F)c4ccccc43)cccc21` (single isomer, unassigned) [Compound I-2383], which IC50 is on record?
**A.** 10000 to 100000 nM

**Q.** With `Cc1ccccc1C1NC(=O)c2cccc(NC(=O)c3cc(F)n4ccccc34)c21` (stereo not drawn) [Compound I-316] as the compound, how does the IC50 read?
**A.** 500 to 1000 nM

**Q.** With `Cc1cnccc1-c1cc(NC(=O)c2cc(F)cc(C(F)(F)F)c2)c2c(c1)C(=O)NC2c1cc(F)ccc1Cl` (stereo not drawn) [Compound I-890] as the compound, how does the IC50 read?
**A.** ≤ 100 nM

**Q.** For `O=C1NC(c2cc(F)ccc2Cl)c2c(NC(=O)C3CCC3)cc(-c3ccc4ncnn4c3)cc21` (stereo not drawn) [Compound I-1778], which IC50 is on record?
**A.** 10000 to 100000 nM

**Q.** With `N#CCCc1cc(NC(=O)N2C[C@H](O)c3cc(F)ccc32)c2c(c1)C(=O)N[C@@H]2c1cc(F)ccc1Cl` (single isomer, unassigned) [Compound I-2349] as the compound, how does the IC50 read?
**A.** 1000 to 10000 nM

**Q.** With `Cc1ncc(-c2cc(NC(=O)c3cc(F)cc(C(F)(F)F)c3)c3c(c2)C(=O)N[C@H]3c2cc(F)ccc2Cl)cn1` [Compound I-784] as the compound, how does the IC50 read?
**A.** ≤ 100 nM

**Q.** `CC(=O)N[C@H]1CC[C@H](C(=O)Nc2cc(-c3ccc4ncnn4c3)cc3c2C(c2cc(F)ccc2Cl)NC3=O)CC1` (mixture of isomers) [Compound I-1850] was tested. Which IC50 did it give?
**A.** 10000 to 100000 nM

**Q.** `CS(=O)(Cc1cc(NC(=O)c2cc(F)cc(C(F)(F)F)c2)c2c(c1)C(=O)NC2c1cc(F)ccc1Cl)=Nc1cccnc1` (stereo not drawn) [Compound I-1486] was tested. Which IC50 did it give?
**A.** ≤ 100 nM

**Q.** `CC(O)c1cc(NC(=O)c2cc(F)cc(C(F)(F)F)c2)c2c(c1)C(=O)NC2c1cc(F)ccc1Cl` (racemic) [Compound I-664] was tested. Which IC50 did it give?
**A.** ≤ 100 nM

**Q.** For `Nc1cn2cc(-c3cc(NC(=O)c4cc(F)cc(C(F)(F)F)c4)c4c(c3)C(=O)NC4c3cc(F)ccc3Cl)ccc2n1` (stereo not drawn) [Compound I-1411], which IC50 is on record?
**A.** ≤ 100 nM

**Q.** With `O=C1N[C@H](c2cc(F)ccc2Cl)c2c(NC(=O)N3C[C@](O)(C(F)(F)F)c4ccccc43)cccc21` (single isomer, unassigned) [Compound I-2385] as the compound, how does the IC50 read?
**A.** 1000 to 10000 nM

**Q.** With `N#CCCc1cc(NC(=O)N2C[C@@H](O)c3cc(F)ccc32)c2c(c1)C(=O)N[C@H]2c1cc(F)ccc1Cl` (single isomer, unassigned) [Compound I-2347] as the compound, how does the IC50 read?
**A.** 100 to 500 nM

**Q.** `O=C(Nc1cc(N2CCc3ncccc32)cc2c1C(c1cc(F)ccc1Cl)NC2=O)c1cc(F)cc(C(F)(F)F)c1` (stereo not drawn) [Compound I-1260] was tested. Which IC50 did it give?
**A.** ≤ 100 nM

**Q.** How did the IC50 turn out when `O=C(Nc1cc(-c2ccn3ncnc3c2)cc2c1C(c1cc(F)ccc1Cl)NC2=O)c1cc(F)cc(C(F)(F)F)c1` (stereo not drawn) [Compound I-1371] was run?
**A.** ≤ 100 nM

**Q.** For `O=C(Nc1cc(C2CN(C3COC3)C2)cc2c1C(c1cc(F)ccc1Cl)NC2=O)c1cc(F)cc(C(F)(F)F)c1` (stereo not drawn) [Compound I-1280], which IC50 is on record?
**A.** ≤ 100 nM

**Q.** Which IC50 does the source give for `O=C1NC(c2cc(F)ccc2Cl)c2c(NC(=O)N3CCC(C(F)(F)F)C3)cc(-c3ccc4ncnn4c3)cc21` (stereo not drawn) [Compound I-1903] here?
**A.** 1000 to 10000 nM

**Q.** For `CC(C)(O)Cc1cc(NC(=O)c2cc(F)cc(C(F)(F)F)c2)c2c(c1)C(=O)N[C@@H]2c1cc(F)ccc1Cl` [Compound I-622], which IC50 is on record?
**A.** 100 to 500 nM

**Q.** With `CNc1cc(NC(=O)N2C[C@@](O)(C(F)F)c3cc(F)ccc32)c2c(c1)C(=O)N[C@H]2c1cc(F)ccc1Cl` (single isomer, unassigned) [Compound I-2680] as the compound, how does the IC50 read?
**A.** 10000 to 100000 nM
